# From patent US9334285B2, “Aldosterone synthase inhibitors” (Boehringer Ingelheim International GmbH, priority 2014, dated 2016)
# Where two headings read alike, the source gives them in different places.
# How the values were obtained:
# CYP19A1 = target: T1, CYP19A1 (Homo sapiens, UniProt P11511); experiment: Inhibition of CYP19A1 (Kragie et al.); format: biochemical; conditions: read-out: CYP19A1 IC50
# T1 sequence (P11511 1-503): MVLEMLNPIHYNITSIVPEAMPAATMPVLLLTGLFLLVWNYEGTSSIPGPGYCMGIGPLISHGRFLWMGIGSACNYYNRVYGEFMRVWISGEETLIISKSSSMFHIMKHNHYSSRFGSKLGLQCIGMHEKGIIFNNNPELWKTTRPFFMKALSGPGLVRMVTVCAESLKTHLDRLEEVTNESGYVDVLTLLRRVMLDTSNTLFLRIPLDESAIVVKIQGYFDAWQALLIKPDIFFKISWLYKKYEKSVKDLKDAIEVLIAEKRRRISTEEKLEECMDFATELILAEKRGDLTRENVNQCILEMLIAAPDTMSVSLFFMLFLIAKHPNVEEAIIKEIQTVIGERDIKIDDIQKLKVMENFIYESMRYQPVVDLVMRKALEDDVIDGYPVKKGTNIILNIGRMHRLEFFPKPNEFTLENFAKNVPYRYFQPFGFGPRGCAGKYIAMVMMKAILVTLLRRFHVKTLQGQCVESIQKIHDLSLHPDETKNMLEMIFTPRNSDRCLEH
# [1] = target: T2, aldosterone synthase (CYP11B2) (Macaca fascicularis, UniProt A0A2K5UPL9); experiment: Inhibition of aldosterone synthase, cynomolgus adrenal mitochondria, aldosterone quantified by mass spectrometry; format: biochemical, cynomolgus monkey; conditions: 2 μM corticosterone, 90 minutes at 37° C.
# T2 construct: employ cynomolgus adrenal gland mitochondria as the source of aldosterone synthase (CYP11B2); from tissue; host or cells: cynomolgus monkey adrenal gland mitochondria
# T2 sequence (A0A2K5UPL9 1-503): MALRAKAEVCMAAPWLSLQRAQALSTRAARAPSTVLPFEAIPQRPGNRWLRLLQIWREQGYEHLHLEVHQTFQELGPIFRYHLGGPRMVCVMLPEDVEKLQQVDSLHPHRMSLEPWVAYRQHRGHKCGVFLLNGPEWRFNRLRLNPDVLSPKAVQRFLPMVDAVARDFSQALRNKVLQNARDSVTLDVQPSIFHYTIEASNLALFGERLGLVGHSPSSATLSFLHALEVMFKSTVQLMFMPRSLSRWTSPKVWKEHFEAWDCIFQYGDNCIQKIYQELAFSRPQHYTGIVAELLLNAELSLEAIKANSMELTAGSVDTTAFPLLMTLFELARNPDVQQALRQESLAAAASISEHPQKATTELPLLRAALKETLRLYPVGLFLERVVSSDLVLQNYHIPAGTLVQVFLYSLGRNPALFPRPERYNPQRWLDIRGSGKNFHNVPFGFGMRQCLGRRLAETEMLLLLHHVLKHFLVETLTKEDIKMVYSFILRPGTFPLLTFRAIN
# Protocol: The aldosterone synthase and cortisol synthase inhibition assays employ cynomolgus adrenal gland mitochondria as the source of aldosterone synthase (CYP11B2) and cortisol synthase (CYP11B1). […] One unit of CYP11B2 and CYP11B1 activity in these preparations is defined as the amount of enzyme that generates 1 pmol of product in one hour under the conditions described.
# The compounds of the invention may be evaluated for aldosterone synthase inhibition by the following assay:
# Assays are performed in 96-well format in a final volume of 60 microL/well, containing 100 mM potassium phosphate, pH 7.4, 1% (v/v) DMSO, and additionally, 2 μM of corticosterone and 50 units of CYP11B2 activity. Reactions are started by the addition of NADPH to 1 mM and allowed to proceed for 90 minutes at 37° C. Reactions are terminated by the addition of 60 μL of MeCN containing an internal standard for mass spectrometry. One hundred microliters are then transferred to a glass filter plate and centrifuged at 570×g for 5 minutes and the filtrate is collected. Reaction product aldosterone is quantified by mass spectrometry. To determine the assay blank value (0% activity), NADPH is omitted from some reactions.
# (§1) Dose dependent inhibition is quantified by the inclusion of compound at various concentrations. Maximum activity (100%) is defined by reactions containing NADPH, but without compound.
# rhCYP17A1 = target: T3, rhCYP17A1 (Homo sapiens, UniProt P05093); experiment: Inhibition of CYP17A1, progesterone to 17-α-hydroxyprogesterone, mass spectrometry; format: biochemical
# T3 construct: purchased Cypex
# T3 sequence (P05093 1-508): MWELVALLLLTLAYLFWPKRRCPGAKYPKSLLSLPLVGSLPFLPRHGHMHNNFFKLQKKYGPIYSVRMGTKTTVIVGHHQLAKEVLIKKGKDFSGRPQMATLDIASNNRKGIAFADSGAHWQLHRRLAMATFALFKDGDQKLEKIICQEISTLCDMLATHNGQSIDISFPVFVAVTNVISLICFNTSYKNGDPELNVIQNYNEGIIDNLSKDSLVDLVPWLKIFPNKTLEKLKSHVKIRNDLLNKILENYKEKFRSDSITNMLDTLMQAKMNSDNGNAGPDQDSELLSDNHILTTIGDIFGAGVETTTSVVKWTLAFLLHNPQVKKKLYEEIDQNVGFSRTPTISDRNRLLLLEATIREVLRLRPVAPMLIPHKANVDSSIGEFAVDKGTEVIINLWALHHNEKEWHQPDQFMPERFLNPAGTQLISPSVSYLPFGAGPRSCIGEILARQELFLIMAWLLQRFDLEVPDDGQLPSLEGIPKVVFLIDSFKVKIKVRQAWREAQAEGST
# Protocol: Compounds of the invention may also be evaluated for inhibition of CYP17A1 via the following assay:
# Reactions are started by the addition of NADPH to 1 mM and allowed to proceed for 15 minutes at 37° C. Reactions are terminated by the addition of 40 μL of MeCN containing an internal standard for mass spectrometry. The plates are centrifuged at 3000 rpm for 5 min and the reaction product 17-α-hydroxyprogesterone is quantified by mass spectrometry. To determine the assay blank value (0% activity), NADPH is omitted from some reactions.
# as §1
# [2] = target: cortisol synthase (CYP11B1) (Macaca fascicularis, UniProt A0A2K5ULY1); experiment: Inhibition of cortisol synthesis, cynomolgus adrenal mitochondria, 11-deoxycortisol as substrate; format: biochemical, cynomolgus monkey; conditions: 150 units of CYP11B1, 11-deoxycortisol as substrate
# Protocol: The aldosterone synthase and cortisol synthase inhibition assays employ cynomolgus adrenal gland mitochondria as the source of aldosterone synthase (CYP11B2) and cortisol synthase (CYP11B1). Mitochondria are prepared from frozen cynomolgus monkey adrenal glands according to Method A described in by J. D. McGarry et al. (Biochem. J., 1983, 214, 21-28), with a final resuspension in the AT buffer described in R. Yamaguchi et al. (Cell Death and Differentiation, 2007, 14, 616-624), frozen as aliquots in liquid nitrogen and stored at −80° C. until use. One unit of CYP11B2 and CYP11B1 activity in these preparations is defined as the amount of enzyme that generates 1 pmol of product in one hour under the conditions described.
# Assays are performed as for aldosterone synthase except for the use of 150 units of CYP11B1, 11-deoxycortisol as substrate and cortisol measured as product.
# [3] = rhCYP17A1, 150 nM progesterone, 15 minutes at 37° C.; read-out: CYP17A1 IC50
# [4] = cynomolgus adrenal mitochondria, read-out: Cortisol Inhibition IC50
# [5] = Cortisol Inhibition IC50, cynomolgus adrenal mitochondria
"IC50 [2, 4]",SMILES,IC50 (CYP19A1),IC50 [1],IC50 (rhCYP17A1; [3]),"IC50 [2, 5]","IC50 (rhCYP17A1; read-out: CYP17A1 IC50; rhCYP17A1, 150 nM progesterone, 15 minutes at 37° C.)"
9 µM,"CC1(CO)Cc2ncn(-c3ccc(Cl)c(Cl)c3)c2C(=O)O1 (single isomer, unassigned) [Compound 30A, 3-(3,4-dichlorophenyl)-6-(hydroxymethyl)-6-methyl-3H,4H,6H,7H-pyrano[3,4-d]imidazol-4-one]",> 20 µM,0.028 µM,> 20 µM,,
,"Cc1cc(-n2cnc3c2C(=O)OC(C)(CO)C3)ccc1C#N (single isomer, unassigned) [Compound 39B, 4-[6-(hydroxymethyl)-6-methyl-4-oxo-3H,4H,6H,7H-pyrano[3,4-d]imidazol-3-yl]-2-methylbenzonitrile]",> 20 µM,0.013 µM,> 20 µM,8.6 µM,
5.3 µM,"CC1(C)Cc2ncn(-c3cccc(Cl)c3F)c2C(=O)O1 [Compound 8, 3-(3-chloro-2-fluorophenyl)-6,6-dimethyl-3H,4H,6H,7H-pyrano[3,4-d]imidazol-4-one]",> 20 µM,0.035 µM,> 20 µM,,
,"CC1(C(=O)O)Cc2ncn(-c3ccc(C#N)c(Cl)c3)c2C(=O)O1 (centres unmarked) [Compound 44, 3-(3-Chloro-4-cyano-phenyl)-6-methyl-4-oxo-3,4,6,7-tetrahydro-pyrano[3,4-d]imidazole-6-carboxylic acid]",> 20 µM,0.67 µM,> 20 µM,> 30 µM,
,"CC1(C)Cc2ncn(-c3ccc(C#N)c(Cl)c3)c2C(=O)O1 [Compound 6, 2-chloro-4-{6,6-dimethyl-4-oxo-3H,4H,6H,7H-pyrano[3,4-d]imidazol-3-yl}benzonitrile]",> 20 µM,0.0053 µM,> 20 µM,2.5 µM,
3.6 µM,"Cc1cc(C#N)ccc1-n1cnc2c1C(=O)OC(C)(CO)C2 (single isomer, unassigned) [Compound 31A, 4-[6-(hydroxymethyl)-6-methyl-4-oxo-3H,4H,6H,7H-pyrano[3,4-d]imidazol-3-yl]-3-methylbenzonitrile]",> 20 µM,0.023 µM,> 20 µM,,
,"C[C@]1(CO)Cc2ncn(-c3ccc(C#N)c(Cl)c3)c2C(=O)O1 (single isomer, unassigned) [Compound 29A]",> 20 µM,0.016 µM,> 20 µM,4.7 µM,
16 µM,"CC1(C)Cc2ncn([C@H]3CC[C@H](C#N)CC3)c2C(=O)O1 [Compound 28, trans-4-(6,6-Dimethyl-4-oxo-6,7-dihydro-4H-pyrano[3,4-d]imidazol-3-yl)-cyclohexanecarbonitrile]",> 20 µM,0.075 µM,> 20 µM,,
,"N#Cc1ccc(-n2cnc3c2C(=O)OC(CO)C3)cc1Cl (single isomer, unassigned) [Compound 33B, 2-chloro-4-[6-(hydroxymethyl)-4-oxo-3H,4H,6H,7H-pyrano[3,4-d]imidazol-3-yl]benzonitrile]",> 20 µM,0.027 µM,,14 µM,> 20 µM
,"CC1(C=O)Cc2ncn(-c3ccc(C#N)c(Cl)c3)c2C(=O)O1 (centres unmarked) [Compound 43, 2-Chloro-4-(6-formyl-6-methyl-4-oxo-6,7-dihydro-4H-pyrano[3,4-d]imidazol-3-yl)-benzonitrile]",> 20 µM,0.54 µM,> 20 µM,> 30 µM,
,"CC1(C)Cc2ncn(-c3ccc(C#N)c(F)c3)c2C(=O)O1 [Compound 10, 4-{6,6-dimethyl-4-oxo-3H,4H,6H,7H-pyrano[3,4-d]imidazol-3-yl}-2-fluorobenzonitrile]",> 20 µM,0.043 µM,> 20 µM,4.2 µM,
,"C[C@@]1(CO)Cc2ncn(-c3ccc(C#N)c(Cl)c3)c2C(=O)O1 (single isomer, unassigned) [Compound 29B]",> 20 µM,0.048 µM,> 20 µM,23 µM,
,"Cc1cc(-n2cnc3c2C(=O)OC(C)(CO)C3)ccc1C#N (single isomer, unassigned) [Compound 39A, 4-[6-(hydroxymethyl)-6-methyl-4-oxo-3H,4H,6H,7H-pyrano[3,4-d]imidazol-3-yl]-2-methylbenzonitrile]",> 20 µM,0.011 µM,> 20 µM,1.4 µM,
7.1 µM,"CC1(C)Cc2ncn(-c3ccc(C#N)cc3F)c2C(=O)O1 [Compound 19, 4-{6,6-dimethyl-4-oxo-3H,4H,6H,7H-pyrano[3,4-d]imidazol-3-yl}-3-fluorobenzonitrile]",> 20 µM,0.046 µM,> 20 µM,,
4.1 µM,"CC1(C)Cc2ncn(-c3ccc(C#N)cc3Cl)c2C(=O)O1 [Compound 18, 3-chloro-4-{6,6-dimethyl-4-oxo-3H,4H,6H,7H-pyrano[3,4-d]imidazol-3-yl}benzonitrile]",> 20 µM,0.017 µM,> 20 µM,,
,"CC(=O)OCC1(C)Cc2ncn(-c3ccc(C#N)c(Cl)c3)c2C(=O)O1 (centres unmarked) [Compound 32, [3-(3-chloro-4-cyanophenyl)-6-methyl-4-oxo-3H,4H,6H,7H-pyrano[3,4-d]imidazol-6-yl]methyl acetate]",,0.036 µM,,6.5 µM,
